In patent publication US12240839B2, “Cyclobutyl dihydroquinoline sulfonamide compounds” (AMGEN INC., priority 2020, dated 2025):

biological target: Human Nav1.7 (Homo sapiens (Human), UniProt Q15858); experiment: IonWorks Barracuda (IWB) automated patch clamp assay; type: cell-based; conditions: human Nav1.7 in HEK cells, population patch-clamp, state- and use-dependent voltage protocol; read-out: hNaV1.7 IWB-U IC50
Protocol: IonWorks Barracuda (IWB) Automated Patch Clamp Assay (Same Protocol for Both Human and Mouse)
Human Nav1.7 currents were recorded in population patch-clamp mode with the IWB automated electrophysiology system (Molecular Devices, LLC, Sunnyvale, CA). Spiking HEK cells (without Kir2.1 transfection) were cultured and prepared for recordings as previously described for IonWorks Quattro testing^1. The external solution consisted of the following (in mM): NaCl 140, KCl 5, CaCl2 2, MgCl2 1, HEPES 10, and glucose 11, pH 7.4, with N-methyl-D-glucamine at 320 mOsmol. […] From a holding potential of −110 mV, currents were elicited by a train of 26 depolarizations of 150 ms duration to −20 mV at a frequency of 5 Hz. Cells were then clamped to −20 mV for a period of 4 minutes in the presence of a single concentration of test compound. Following this compound incubation period, cells were clamped to −110 mV for three seconds to recover unbound channels and put through the same 26 pulse voltage protocol as above. Peak inward current during the 26th pulse to −20 mV in the presence of compound was divided by the peak inward current evoked by the 26th pulse to −20 mV in the absence of compound to determine percent inhibition. Concentration-response curves of percent inhibition as a function of concentration were generated to calculate IC50 values as described in Kornecook, T. J.; Yin, R.; Altmann, S.; et al. Pharmacologic Characterization of AMG8379, a Potent and Selective Small Molecule Sulfonamide Antagonist of the Voltage-Gated Sodium Channel NaV1. 7.
The potency of the compounds of the present invention were evaluated on human Nav1.7 channels using the above described IonWorks Barracuda automated electrophysiology platform that evaluates the ability of compounds to block sodium conductance through Nav1.7 channels. A voltage-protocol that prosecutes both state-dependent as well as use-dependent inhibition was used as these modes of action are thought to be more relevant for the native state of Nav1.7 channels in pain sensing neurons in vivo.

Human Nav1.7, sequence (Q15858 whole entry): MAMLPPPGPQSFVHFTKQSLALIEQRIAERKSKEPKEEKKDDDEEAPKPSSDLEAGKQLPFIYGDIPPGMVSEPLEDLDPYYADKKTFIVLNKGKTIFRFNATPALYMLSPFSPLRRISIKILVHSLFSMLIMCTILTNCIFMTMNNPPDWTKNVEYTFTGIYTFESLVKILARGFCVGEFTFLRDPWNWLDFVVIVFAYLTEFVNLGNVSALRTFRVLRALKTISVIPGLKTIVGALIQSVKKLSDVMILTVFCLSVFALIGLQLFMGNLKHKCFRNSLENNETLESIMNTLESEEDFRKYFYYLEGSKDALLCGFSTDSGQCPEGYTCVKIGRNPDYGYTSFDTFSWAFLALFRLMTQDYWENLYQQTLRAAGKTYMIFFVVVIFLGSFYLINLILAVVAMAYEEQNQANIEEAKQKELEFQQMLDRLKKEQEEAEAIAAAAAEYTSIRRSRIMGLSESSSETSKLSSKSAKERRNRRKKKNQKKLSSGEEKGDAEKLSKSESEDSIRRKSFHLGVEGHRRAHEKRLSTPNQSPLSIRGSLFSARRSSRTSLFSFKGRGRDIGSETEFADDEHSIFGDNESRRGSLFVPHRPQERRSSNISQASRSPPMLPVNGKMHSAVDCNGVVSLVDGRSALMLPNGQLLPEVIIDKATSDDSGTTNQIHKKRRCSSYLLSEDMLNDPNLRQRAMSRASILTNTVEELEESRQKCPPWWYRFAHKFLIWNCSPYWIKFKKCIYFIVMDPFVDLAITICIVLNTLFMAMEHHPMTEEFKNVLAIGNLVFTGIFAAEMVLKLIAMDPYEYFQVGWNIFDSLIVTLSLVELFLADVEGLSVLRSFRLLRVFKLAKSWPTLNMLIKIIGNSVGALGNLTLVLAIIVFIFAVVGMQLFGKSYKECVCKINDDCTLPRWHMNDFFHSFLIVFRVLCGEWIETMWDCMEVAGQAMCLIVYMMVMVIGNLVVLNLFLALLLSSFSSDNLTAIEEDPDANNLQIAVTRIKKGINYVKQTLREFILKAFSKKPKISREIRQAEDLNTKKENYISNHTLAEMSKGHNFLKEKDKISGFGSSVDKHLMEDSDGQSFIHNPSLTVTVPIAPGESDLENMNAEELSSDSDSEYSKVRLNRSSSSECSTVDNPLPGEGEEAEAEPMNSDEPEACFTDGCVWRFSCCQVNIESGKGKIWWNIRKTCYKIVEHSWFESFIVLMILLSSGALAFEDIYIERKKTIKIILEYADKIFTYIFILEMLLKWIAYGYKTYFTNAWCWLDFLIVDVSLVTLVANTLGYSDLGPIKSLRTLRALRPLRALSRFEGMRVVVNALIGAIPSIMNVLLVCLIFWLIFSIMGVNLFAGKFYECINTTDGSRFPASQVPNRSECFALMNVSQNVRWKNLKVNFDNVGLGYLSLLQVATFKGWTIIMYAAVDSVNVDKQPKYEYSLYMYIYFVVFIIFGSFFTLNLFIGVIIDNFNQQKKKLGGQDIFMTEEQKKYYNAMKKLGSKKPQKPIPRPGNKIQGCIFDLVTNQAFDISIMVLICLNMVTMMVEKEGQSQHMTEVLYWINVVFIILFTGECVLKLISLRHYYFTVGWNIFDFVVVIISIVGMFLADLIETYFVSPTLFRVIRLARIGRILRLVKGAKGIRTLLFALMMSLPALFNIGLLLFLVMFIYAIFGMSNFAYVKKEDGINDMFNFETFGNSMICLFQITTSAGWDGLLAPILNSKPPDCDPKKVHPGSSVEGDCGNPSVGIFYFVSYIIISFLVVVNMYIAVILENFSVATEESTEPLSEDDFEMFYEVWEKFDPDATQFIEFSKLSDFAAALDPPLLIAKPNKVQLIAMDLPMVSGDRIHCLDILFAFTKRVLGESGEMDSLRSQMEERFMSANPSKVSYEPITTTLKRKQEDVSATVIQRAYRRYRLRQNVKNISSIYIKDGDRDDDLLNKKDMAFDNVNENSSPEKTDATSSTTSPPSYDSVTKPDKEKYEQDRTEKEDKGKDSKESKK

| IC50 [nM] | Structure (SMILES) |
| --- | --- |
| 7 | COc1cc([C@H]2C[C@H](C(F)(F)F)C2)c(F)cc1-n1c(=O)ccc2cc(S(=O)(=O)Nc3ccon3)ccc21 (single isomer, unassigned) [Example 7, trans-(P)-1-(5-fluoro-2-methoxy-4-(3-(trifluoromethyl)cyclobutyl)phenyl)-N-(isoxazol-3-yl)-2-oxo-1,2-dihydroquinoline-6-sulfonamide] |
| 7 | COc1cc(C2CC(OC(F)(F)F)C2)c(F)cc1-n1c(=O)ccc2cc(S(=O)(=O)Nc3ccon3)ccc21 (single isomer, unassigned) [Example 44, cis-(P)-1-(5-fluoro-2-methoxy-4-(3-(trifluoromethoxy)cyclobutyl)phenyl)-N-(isoxazol-3-yl)-2-oxo-1,2-dihydroquinoline-6-sulfonamide] |
| 25 | COc1cc(C2CC(C(C)(C)C)C2)c(F)cc1-n1c(=O)ccc2cc(S(=O)(=O)Nc3ccon3)ccc21 (racemic) [Example 2, 1-(4-(3-(tert-butyl)cyclobutyl)-5-fluoro-2-methoxyphenyl)-N-(isoxazol-3-yl)-2-oxo-1,2-dihydroquinoline-6-sulfonamide] |
| 11 | COc1cc(C2CC(C(F)(F)F)C2)c(F)cc1-n1c(=O)ccc2cc(S(=O)(=O)Nc3ccon3)ccc21 (atropisomer, axis not shown; (P)) [Example 6, cis-(P)-1-(5-fluoro-2-methoxy-4-(3-(trifluoromethyl)cyclobutyl)phenyl)-N-(isoxazol-3-yl)-2-oxo-1,2-dihydroquinoline-6-sulfonamide] |
| 6 | COc1cc([C@H]2C[C@H](C(F)(F)F)C2)c(Cl)cc1-n1c(=O)ccc2cc(S(=O)(=O)Nc3ccon3)ccc21 (single isomer, unassigned) [Example 13] |
| 7 | COc1cc(C2CC(C(F)(F)F)C2)c(Cl)cc1-n1c(=O)ccc2cc(S(=O)(=O)Nc3ccon3)ccc21 (atropisomer, axis not shown; (P)) [Example 12, cis-(P)-1-(5-chloro-2-methoxy-4-((1S,3S)-3-(trifluoromethyl)cyclobutyl)phenyl)-N-(isoxazol-3-yl)-2-oxo-1,2-dihydroquinoline-6-sulfonamide] |

| Structure (SMILES) | IC50 [nM] |
| --- | --- |
| COc1cc([C@H]2C[C@H](C(F)(F)F)C2)c(C)cc1-n1c(=O)ccc2cc(S(=O)(=O)Nc3ncccn3)ccc21 (atropisomer, axis not shown; (P)) [Example 37, trans-(P)-1-(2-methoxy-5-methyl-4-(3-(trifluoromethyl)cyclobutyl)phenyl)-2-oxo-N-(pyrimidin-2-yl)-1,2-dihydroquinoline-6-sulfonamide] | 62 |

system: CYP3A4; experiment: not given; conditions: hepatocytes

| Hu CYP3A4 mRNA Induction (10 uM POC) [%] | Structure (SMILES) |
| --- | --- |
| 10.51 | COc1cc([C@H]2C[C@@](F)(C(F)(F)F)C2)c(F)cc1-n1c(=O)ccc2cc(S(=O)(=O)Nc3ccon3)ccc21 (atropisomer, axis not shown; (P)) [Example 8, trans-(P)-1-(5-fluoro-4-(3-fluoro-3-(trifluoromethyl)cyclobutyl)-2-methoxyphenyl)-N-(isoxazol-3-yl)-2-oxo-1,2-dihydroquinoline-6-sulfonamide] |

system: CYP3A4; experiment: Human CYP3A4 induction assay (mRNA, cryopreserved human hepatocytes); conditions: 10 uM test compound, 72 hours, percent of control (rifampin positive control)
Protocol: Human CYP3A4 Induction Assay
Cryopreserved human hepatocytes were seeded in 96-well collagen coated plates at 70,000 cells per well in hepatocyte plating media (HPM, final concentrations: 1× Dulbecco's Modified Eagle's Medium, 0.1 μM dexamethasone, 10% fetal bovine serum, 1×ITS, 1×PSG) followed by incubation at 37° C. under 5% CO2 and 90% relative humidity for 2 days to allow hepatocytes to form a confluent layer. On Day 3, hepatocytes were treated with either test compound or rifampin (20 μM, positive control for CYP3A induction) prepared in hepatocyte incubation media ((HIM, final concentrations: 1× William's Medium E, 0.1 μM dexamethasone, 1×ITS, 1×PSG). Treatment was performed for 72 hours with either 2 concentrations (2 μM or 10 μM) or a range of concentrations (0.001 μM to 100 μM) of the test compound to obtain full dose-response curve. Fresh media containing the relevant concentrations of the test compound was replaced every day until the samples were processed. After 72 hours of incubation, samples were processed for mRNA analysis using bDNA technology using manufacturer's instructions (Affymetrix, Fremont, CA). Cell viability was tested at the end of the experiment using MTT assay kit (Roche Diagnostics, Basel, Switzerland). Data was analyzed and presented as percent of control (POC) and Emax and EC50 obtained when appropriate according to guidance from Center for Drug Evaluation and Research (CDER), 2006, Guidance for Industry, Drug Interaction Studies—Study Design, Data Analysis, and Implications for Dosing and Labeling.

| Structure (SMILES) | Hu CYP3A4 mRNA Induction (10 uM POC) [%] |
| --- | --- |
| COc1cc(C2CCC2)c(C)cc1-n1c(=O)ccc2cc(S(=O)(=O)Nc3ncco3)ccc21 (atropisomer, axis not shown; (P)) [Example 34, (P)-1-(4-cyclobutyl-2-methoxy-5-methylphenyl)-N-(oxazol-2-yl)-2-oxo-1,2-dihydroquinoline-6-sulfonamide] | 69.54 |
| COc1cc(C2CCC2)c(Cl)cc1-n1c(=O)ccc2cc(S(=O)(=O)Nc3ncco3)ccc21 (atropisomer, axis not shown; (P)) [Example 32, (P)-1-(5-chloro-4-cyclobutyl-2-methoxyphenyl)-N-(oxazol-2-yl)-2-oxo-1,2-dihydroquinoline-6-sulfonamide] | 88 |
| COc1cc(C2CCC2)c(C)cc1-n1c(=O)ccc2cc(S(=O)(=O)Nc3ccon3)ccc21 (atropisomer, axis not shown; (P)) [Example 22, (P)-1-(4-cyclobutyl-2-methoxy-5-methylphenyl)-N-(isoxazol-3-yl)-2-oxo-1,2-dihydroquinoline-6-sulfonamide] | 24.14 |
| COc1cc(C2CCC2)c(F)cc1-n1c(=O)ccc2cc(S(=O)(=O)Nc3ncco3)ccc21 (atropisomer, axis not shown; (P)) [Example 24, (P)-1-(4-cyclobutyl-5-fluoro-2-methoxyphenyl)-N-(oxazol-2-yl)-2-oxo-1,2-dihydroquinoline-6-sulfonamide] | 89.26 |
| COc1cc(C2CCC2)c(F)cc1-n1c(=O)ccc2cc(S(=O)(=O)Nc3ccon3)ccc21 (atropisomer, axis not shown; (P)) [Example 14, (P)-1-(4-cyclobutyl-5-fluoro-2-methoxyphenyl)-N-(isoxazol-3-yl)-2-oxo-1,2-dihydroquinoline-6-sulfonamide] | 18.3 |
| COc1cc([C@H]2C[C@H](C(F)(F)F)C2)c(F)cc1-n1c(=O)ccc2c(F)c(S(=O)(=O)Nc3ccon3)ccc21 (atropisomer, axis not shown; (P)) [Example 46, trans-(P)-5-fluoro-1-(5-fluoro-2-methoxy-4-(3-(trifluoromethyl)cyclobutyl)phenyl)-N-(isoxazol-3-yl)-2-oxo-1,2-dihydroquinoline-6-sulfonamide] | 6.6 |
| COc1cc(C2CC(F)(F)C2)c(F)cc1-n1c(=O)ccc2cc(S(=O)(=O)Nc3ccon3)ccc21 (atropisomer, axis not shown; (P)) [Example 4, (P)-1-(4-(3,3-difluorocyclobutyl)-5-fluoro-2-methoxyphenyl)-N-(isoxazol-3-yl)-2-oxo-1,2-dihydroquinoline-6-sulfonamide] | 14.71 |

Second part, the compound after the results:

| Hu CYP3A4 mRNA Induction (10 uM POC) [%] | Structure (SMILES) |
| --- | --- |
| 16.35 | COc1cc([C@H]2C[C@H](C(F)(F)F)C2)c(F)cc1-n1c(=O)ccc2cc(S(=O)(=O)Nc3ccon3)ccc21 (single isomer, unassigned) [Example 7, trans-(P)-1-(5-fluoro-2-methoxy-4-(3-(trifluoromethyl)cyclobutyl)phenyl)-N-(isoxazol-3-yl)-2-oxo-1,2-dihydroquinoline-6-sulfonamide] |
| 64.94 | COc1cc([C@H]2C[C@H](C(F)(F)F)C2)c(Cl)cc1-n1c(=O)ccc2cc(S(=O)(=O)Nc3ncco3)ccc21 (atropisomer, axis not shown; (P)) [Example 49, trans (P)-1-(5-chloro-2-methoxy-4-((1R,3R)-3-(trifluoromethyl)cyclobutyl)phenyl)-N-(oxazol-2-yl)-2-oxo-1,2-dihydroquinoline-6-sulfonamide] |
| 4.43 | COc1cc([C@H]2C[C@H](C(F)(F)F)C2)ccc1-n1c(=O)ccc2cc(S(=O)(=O)Nc3cccnn3)ccc21 (atropisomer, axis not shown; (P)) [Example 38, trans-(P)-1-(2-methoxy-4-(3-(trifluoromethyl)cyclobutyl)phenyl)-2-oxo-N-(pyridazin-3-yl)-1,2-dihydroquinoline-6-sulfonamide] |
| 46.85 | COc1cc([C@H]2C[C@H](C(F)(F)F)C2)c(Cl)cc1-n1c(=O)ccc2cc(S(=O)(=O)Nc3ccon3)ccc21 (single isomer, unassigned) [Example 13] |
| 19.16 | COc1cc([C@H]2C[C@H](C(F)(F)F)C2)ccc1-n1c(=O)ccc2cc(S(=O)(=O)Nc3ncccn3)ccc21 (atropisomer, axis not shown; (P)) [Example 36, trans-(P)-1-(2-methoxy-4-((1R,3R)-3-(trifluoromethyl)cyclobutyl)phenyl)-2-oxo-N-(pyrimidin-2-yl)-1,2-dihydroquinoline-6-sulfonamide] |
| 18.57 | COc1cc(C2CCC2)ccc1-n1c(=O)ccc2cc(S(=O)(=O)Nc3ccon3)ccc21 (atropisomer, axis not shown; (P)) [Example 25, (P)-1-(4-cyclobutyl-2-methoxyphenyl)-N-(isoxazol-3-yl)-2-oxo-1,2-dihydroquinoline-6-sulfonamide] |
| 13.33 | COc1cc([C@H]2C[C@H](C(F)(F)F)C2)ccc1-n1c(=O)ccc2cc(S(=O)(=O)Nc3ccon3)ccc21 (atropisomer, axis not shown; (P)) [Example 35, trans-(P)—N-(isoxazol-3-yl)-1-(2-methoxy-4-(3-(trifluoromethyl)cyclobutyl)phenyl)-2-oxo-1,2-dihydroquinoline-6-sulfonamide] |
